Ends that are not written are not given here.
system: cell lines described in Example 3 (293T, HeLa, CT26, MCF-7); assay: Cytotoxicity of LMWP peptides, MTT colorimetric assay; format: cell-based, human, murine; conditions: FIG. 5; TAT at 5.0 mM and 10.0 mM
Experimental: Cytotoxicity of the LMWP peptides and TDSP5-gelonin conjugates were examined using the cell lines described in Example 3. In brief, cells grown to 75% confluency were incubated with various concentrations of LMWP peptides, TAT peptide, TDSP5-gelonin conjugate, or TAT-gelonin conjugates. Cell proliferation was measured over 3 days, and cytotoxicity was determined using a colorimetric assay, which was performed by removing the cell culture medium and replacing it with PBS containing 5 mg/ml of 3-(4,5-dimethylthiazol-2-yl)-2,5-diphenyltetrazolium bromide (MTT). The absorbance of the cell culture medium following MTT addition was measured at 540 nm, and the survival ratio was determined by the ratio of the absorbance of sample-treated cells to that of control cells.

Substance	cell cytotoxicity (in words)
PRRRRSSRRP [TDSP3]	little or no toxicity
VSRRRRRRGGRRRR [TDSP5]	little or no toxicity
PRRRRR [TDSP2]	little or no toxicity
ASRRRRRGGRRRR [TDSP4]	little or no toxicity

From US20070071677A1 (priority 2003, published 2007)
